Measurements as given in ChEMBL document CHEMBL1139353, “Discovery of a new class of potential multifunctional atypical antipsychotic agents targeting dopamine D3 and serotonin 5-HT1A and 5-HT2A receptors: design, synthesis, and effects on behavior” (J Med Chem, 2009).
Active and inactive are the calls of the source. No cut-off for these calls is given here.

Columns and labels:
Mus musculus [1] = details: NMRI
Description: Antipsychotic activity in NMRI mouse assessed as reduction in phencyclidine-induced locomotor activity administered 30 mins prior to testing measured for 60 mins

[2] = biological target: T1, Adrenergic receptor alpha-1 (Rattus norvegicus, UniProt P15823+P23944+P43140); assay: Displacement of [3H]prazosin from adrenergic alpha1 receptor in rat cerebral cortex by liquid scintillation counting; type: tissue-based
T1 sequence (P15823 whole entry): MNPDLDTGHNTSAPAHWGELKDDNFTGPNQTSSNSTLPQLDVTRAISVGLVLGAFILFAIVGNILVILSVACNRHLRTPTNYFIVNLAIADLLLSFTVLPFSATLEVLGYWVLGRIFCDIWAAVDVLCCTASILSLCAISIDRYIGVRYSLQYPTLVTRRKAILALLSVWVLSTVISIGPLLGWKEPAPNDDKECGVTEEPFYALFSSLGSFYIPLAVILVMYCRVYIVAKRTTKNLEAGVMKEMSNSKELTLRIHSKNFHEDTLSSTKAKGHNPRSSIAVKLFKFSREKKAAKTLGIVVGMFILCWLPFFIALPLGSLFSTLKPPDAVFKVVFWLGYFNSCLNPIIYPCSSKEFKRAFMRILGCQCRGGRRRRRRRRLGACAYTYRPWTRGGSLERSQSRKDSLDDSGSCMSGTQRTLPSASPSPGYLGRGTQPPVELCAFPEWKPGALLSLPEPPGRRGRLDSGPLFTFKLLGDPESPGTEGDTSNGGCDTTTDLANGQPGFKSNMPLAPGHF
T1 sequence (P23944 whole entry): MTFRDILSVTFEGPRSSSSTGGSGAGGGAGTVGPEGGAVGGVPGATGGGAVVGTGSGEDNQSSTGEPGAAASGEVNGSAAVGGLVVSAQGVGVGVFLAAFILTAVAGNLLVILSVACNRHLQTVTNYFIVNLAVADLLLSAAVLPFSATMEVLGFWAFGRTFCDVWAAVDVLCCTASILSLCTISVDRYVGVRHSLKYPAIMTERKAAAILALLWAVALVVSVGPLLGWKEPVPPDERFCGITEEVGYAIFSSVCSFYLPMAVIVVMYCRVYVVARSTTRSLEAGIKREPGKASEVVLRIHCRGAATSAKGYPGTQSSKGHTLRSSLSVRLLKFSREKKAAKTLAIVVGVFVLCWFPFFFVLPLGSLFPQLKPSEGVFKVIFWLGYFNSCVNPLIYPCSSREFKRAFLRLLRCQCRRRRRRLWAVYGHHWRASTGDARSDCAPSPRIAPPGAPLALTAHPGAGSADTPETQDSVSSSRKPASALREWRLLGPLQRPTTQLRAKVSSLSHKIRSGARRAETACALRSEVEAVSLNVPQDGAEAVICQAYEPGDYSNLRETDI
T1 sequence (P43140 whole entry): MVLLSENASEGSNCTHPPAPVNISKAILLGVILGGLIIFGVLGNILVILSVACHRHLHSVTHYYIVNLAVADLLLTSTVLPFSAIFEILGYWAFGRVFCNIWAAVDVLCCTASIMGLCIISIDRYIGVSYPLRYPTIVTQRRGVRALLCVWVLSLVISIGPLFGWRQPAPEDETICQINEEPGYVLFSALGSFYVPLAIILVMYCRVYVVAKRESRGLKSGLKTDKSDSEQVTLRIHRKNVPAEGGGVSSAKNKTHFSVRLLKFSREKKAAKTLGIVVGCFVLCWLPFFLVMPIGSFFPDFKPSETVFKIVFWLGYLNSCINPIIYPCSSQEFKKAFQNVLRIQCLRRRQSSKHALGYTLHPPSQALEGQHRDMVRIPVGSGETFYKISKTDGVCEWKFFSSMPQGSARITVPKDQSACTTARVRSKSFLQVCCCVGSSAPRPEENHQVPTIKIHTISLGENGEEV

Rattus norvegicus = assay: Induction of c-Fos protein expression in ip dosed rat dorsolateral striatum after 1 hr by light microscopy; type: functional, organism-based
Mus musculus [3] = species on record: Mus musculus; details: in vivo, 0.5 h
Description: Sedative activity in NMRI mouse assessed as reduction in spontaneous locomotor activity administered 30 mins prior to testing

D(3) dopamine receptor [4] = biological target: T2, D(3) dopamine receptor (Homo sapiens, UniProt P35462); assay: biochemical
Description: Displacement of [3H]7OH-DPAT from dopamine D3 receptor expressed in Sf9 cells by scintillation spectrometry

D(3) dopamine receptor [5] = biological target: T2, D(3) dopamine receptor; assay: Antagonist activity at human dopamine D3 receptor expressed in CHO-K1 cells by [35S]GTPgammaS binding assay; type: functional, cell-based
Mus musculus [6] = assay: Antipsychotic activity in NMRI mouse assessed as reduction in phencyclidine-induced locomotor activity at 10 mg/kg administered 30 mins prior to testing measured for 60 mins; type: functional, organism-based; parameters: dose 10 mg/kg
[7] = Displacement of [3H]idazoxan from imidazole I2 receptor in rabbit kidney by filtration technique; parameters: species or system Oryctolagus cuniculus
Histamine H1 receptor = Histamine H1 receptor (Cavia porcellus, UniProt P31389); assay: Displacement of [3H]pyrilamine from histamine H1 receptor in guinea pig cerebellum; type: tissue-based
[8] = biological target: 5-hydroxytryptamine receptor 2A (Rattus norvegicus, UniProt P14842)
Sequence of 5-hydroxytryptamine receptor 2A (P14842 whole entry): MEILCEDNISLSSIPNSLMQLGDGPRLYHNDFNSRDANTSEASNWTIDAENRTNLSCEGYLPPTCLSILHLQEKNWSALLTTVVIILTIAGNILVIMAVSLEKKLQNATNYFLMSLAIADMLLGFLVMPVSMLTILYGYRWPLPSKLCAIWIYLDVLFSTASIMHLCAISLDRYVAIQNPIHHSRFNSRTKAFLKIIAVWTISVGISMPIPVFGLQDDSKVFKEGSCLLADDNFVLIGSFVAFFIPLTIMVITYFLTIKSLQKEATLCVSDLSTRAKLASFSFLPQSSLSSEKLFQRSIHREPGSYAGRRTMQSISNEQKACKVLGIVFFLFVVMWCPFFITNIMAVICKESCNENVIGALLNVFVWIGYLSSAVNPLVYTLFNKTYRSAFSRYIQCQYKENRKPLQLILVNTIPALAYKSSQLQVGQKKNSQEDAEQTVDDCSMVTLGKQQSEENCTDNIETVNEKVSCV
Description: Displacement of [3H]ketanserin from 5HT2A receptor in CRL:CD(SD)BR-COBS rat cortex by scintillation spectrometry

T2 sequence (P35462 whole entry): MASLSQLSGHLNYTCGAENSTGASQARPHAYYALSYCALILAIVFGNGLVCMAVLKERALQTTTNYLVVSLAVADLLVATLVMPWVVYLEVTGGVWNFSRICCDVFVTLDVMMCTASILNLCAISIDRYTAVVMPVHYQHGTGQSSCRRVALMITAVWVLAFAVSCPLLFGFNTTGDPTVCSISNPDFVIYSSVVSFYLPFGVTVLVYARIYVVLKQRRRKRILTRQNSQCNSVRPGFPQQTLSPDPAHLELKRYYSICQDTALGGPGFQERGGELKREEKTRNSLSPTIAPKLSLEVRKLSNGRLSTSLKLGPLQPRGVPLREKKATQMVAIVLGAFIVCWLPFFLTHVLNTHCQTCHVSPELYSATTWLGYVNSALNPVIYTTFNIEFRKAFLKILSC
Sequence of Histamine H1 receptor (P31389 whole entry): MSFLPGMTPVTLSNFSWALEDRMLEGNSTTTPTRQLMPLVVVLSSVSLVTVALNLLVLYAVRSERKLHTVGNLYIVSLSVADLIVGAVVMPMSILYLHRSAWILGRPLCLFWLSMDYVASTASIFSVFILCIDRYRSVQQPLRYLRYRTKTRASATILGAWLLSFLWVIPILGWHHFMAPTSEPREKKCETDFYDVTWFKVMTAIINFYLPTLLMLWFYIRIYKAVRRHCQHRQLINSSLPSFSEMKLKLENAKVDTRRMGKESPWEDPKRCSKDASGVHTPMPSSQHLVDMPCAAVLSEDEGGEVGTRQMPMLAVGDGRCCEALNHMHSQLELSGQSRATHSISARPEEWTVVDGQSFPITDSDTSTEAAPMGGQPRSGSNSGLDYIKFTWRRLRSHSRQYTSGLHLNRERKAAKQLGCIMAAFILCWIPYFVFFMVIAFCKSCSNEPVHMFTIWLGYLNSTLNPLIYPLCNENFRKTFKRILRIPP

- Ki [2]: 0.006 µM
- ED50 (Mus musculus [3]): 5.5 mg/kg
- Ki (D(3) dopamine receptor [4]): 0.0045 µM
- IC50 (D(3) dopamine receptor [5]): 0.143 µM
- Ki [7]: 0.138 µM
- Ki (Histamine H1 receptor): 0.015 µM
- Ki [8]: 0.0153 µM
Compound: Cc1cccc(N2CCN(CCCCNC(=O)c3cc4ccccc4o3)CC2)c1
- Activity (Mus musculus [1]): Dose-dependent effect
- Activity (Rattus norvegicus): Dose-dependent effect
- Activity (Mus musculus [6]): Active
